The experiment concerns the target T1, human MDM2 (GST-hMDM2 aa 1-188), interaction with biotinylated-p53 (aa 1-83) (Homo sapiens, UniProt Q00987).
T1 construct: Amino acid residues 1-188 of human MDM2 were expressed; made in house; host or cells: Escherichia coli
The experiment can be described thus: Homogenous Time-Resolved Fluorescence Assay (HTRF1 assay), inhibition of HDM2-p53 interaction. Type of experiment: binding. Conditions: 2.5 nM GST-hMDM2, 5 nM biotinylated-p53, 200 mM KF. In outline: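 GST-hMDM2 preincubated 20 min at room temperature with serially diluted compound, then biotinylated p53 (aa 1-83, AviTag-TrxA-6xHis fusion) added for 60 min. SA-XLent/anti-GST cryptate detection equilibrated >4 h; final DMSO 2%. Time-resolved fluorescence read; percent inhibition relative to nutlin-3.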
T1 sequence (Q00987 1-188): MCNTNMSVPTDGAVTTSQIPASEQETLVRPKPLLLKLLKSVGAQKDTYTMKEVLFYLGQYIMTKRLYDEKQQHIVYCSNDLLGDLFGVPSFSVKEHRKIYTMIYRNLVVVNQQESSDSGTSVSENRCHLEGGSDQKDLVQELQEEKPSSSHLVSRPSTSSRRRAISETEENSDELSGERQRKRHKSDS
By IC50 is commonly meant the midpoint of a concentration-inhibition curve. Take `C=CCN1C(=O)[C@@H](CC(=O)O)O[C@H](c2cccc(Cl)c2)[C@H]1c1ccc(Cl)cc1` [Example 46, 2-((2R,5R,6R)-4-Allyl-6-(3-chlorophenyl)-5-(4-chlorophenyl)-3-oxomorpholin-2-yl)acetic acid]: the IC50 stood at 800 nM. The result for `C=CCN1C(=O)[C@H](CC(=O)O)O[C@H](c2cccc(Cl)c2)[C@H]1c1ccc(Cl)cc1` [Example 47, 2-((2S,5R,6R)-4-Allyl-6-(3-chlorophenyl)-5-(4-chlorophenyl)-3-oxomorpholin-2-yl)acetic acid] reads 800 nM; that for `CCCN1C(=O)[C@@H](CC(=O)O)O[C@H](c2cccc(Cl)c2)[C@H]1c1ccc(Cl)cc1` [Example 48, 2-((2R,5R,6R)-6-(3-Chlorophenyl)-5-(4-chlorophenyl)-3-oxo-4-propylmorpholin-2-yl)acetic acid], 500 nM; that for `CCCN1C(=O)[C@H](CC(=O)O)O[C@H](c2cccc(Cl)c2)[C@H]1c1ccc(Cl)cc1` [Example 49, 2-((2S,5R,6R)-6-(3-Chlorophenyl)-5-(4-chlorophenyl)-3-oxo-4-propylmorpholin-2-yl)acetic acid], 600 nM. The result for `CCC(CC)N1C(=O)[C@H](CC(=O)O)O[C@H](c2cccc(Cl)c2)[C@H]1c1ccc(Cl)cc1` [Example 53, 2-((2S,5R,6R)-6-(3-Chlorophenyl)-5-(4-chlorophenyl)-3-oxo-4-(pentan-3-yl)morpholin-2-yl)acetic acid] reads 100 nM; that for `O=C(O)C[C@@H]1O[C@H](c2cccc(Cl)c2)[C@@H](c2ccc(Cl)cc2F)N(CC2CC2)C1=O` [Example 54, 2-((2S,5R,6R)-5-(4-Chloro-2-fluorophenyl)-6-(3-chlorophenyl)-4-(cyclopropylmethyl)-3-oxomorpholin-2-yl)acetic acid], 600 nM. The result for `O=C(O)C[C@@H]1O[C@H](c2cccc(Cl)c2)[C@@H](c2ccccc2)N(CC2CC2)C1=O` [Example 55, 2-((2S,5R,6R)-6-(3-Chlorophenyl)-4-(cyclopropylmethyl)-3-oxo-5-phenylmorpholin-2-yl)acetic acid] reads 3300 nM; that for `O=C(O)C[C@@H]1O[C@H](c2cccc(Cl)c2)[C@@H](c2ccc(F)cc2)N(CC2CC2)C1=O` [Example 56, 2-((2S,5R,6R)-6-(3-Chlorophenyl)-4-(cyclopropylmethyl)-5-(4-fluorophenyl)-3-oxomorpholin-2-yl)acetic acid], 700 nM. For `O=C(O)C[C@@H]1O[C@H](c2cccc(Cl)c2)[C@@H](c2ccc(C(F)(F)F)cc2)N(CC2CC2)C1=O` [Example 57, 2-((2S,5R,6R)-6-(3-Chlorophenyl)-4-(cyclopropylmethyl)-3-oxo-5-(4-(trifluoromethyl)phenyl)morpholin-2-yl)acetic acid], inhibition was half-maximal at 800 nM (IC50). The result for `CCc1ccc([C@@H]2[C@@H](c3cccc(Cl)c3)O[C@@H](CC(=O)O)C(=O)N2CC2CC2)cc1` [Example 58, 2-((2S,5R,6R)-6-(3-Chlorophenyl)-4-(cyclopropylmethyl)-5-(4-ethylphenyl)-3-oxomorpholin-2-yl)acetic acid] reads 900 nM. For the compound `O=C(O)C[C@@H]1O[C@H](c2cccc(Cl)c2)[C@@H](c2ccc(OC(F)(F)F)cc2)N(CC2CC2)C1=O` [Example 59, 2-((2S,5R,6R)-6-(3-Chlorophenyl)-4-(cyclopropylmethyl)-3-oxo-5-(4-(trifluoromethoxy)phenyl)morpholin-2-yl)acetic acid], the IC50 is 700 nM. The result for `Cc1ccc([C@@H]2[C@@H](c3cccc(Cl)c3)O[C@@H](CC(=O)O)C(=O)N2CC2CC2)cc1` [Example 60, 2-((2S,5R,6R)-6-(3-Chlorophenyl)-4-(cyclopropylmethyl)-3-oxo-5-(p-tolyl)morpholin-2-yl)acetic acid] reads 700 nM; that for `Cc1ccc([C@@H]2[C@@H](c3cccc(Cl)c3)O[C@H](CC(=O)O)C(=O)N2CC2CC2)cc1` [Example 61, 2-((2R,5R,6R)-6-(3-Chlorophenyl)-4-(cyclopropylmethyl)-3-oxo-5-(p-tolyl)morpholin-2-yl)acetic acid], 600 nM; that for `O=C(O)C[C@H]1O[C@H](c2cccc(Cl)c2)[C@@H](c2ccccc2)N(CC2CC2)C1=O` [Example 63, 2-((2R,5R,6R)-6-(3-Chlorophenyl)-4-(cyclopropylmethyl)-3-oxo-5-phenylmorpholin-2-yl)acetic acid], 9100 nM. The result for `O=C(O)C[C@H]1O[C@H](c2cccc(Cl)c2)[C@@H](c2ccc(F)cc2)N(CC2CC2)C1=O` [Example 64, 2-((2R,5R,6R)-6-(3-Chlorophenyl)-4-(cyclopropylmethyl)-5-(4-fluorophenyl)-3-oxomorpholin-2-yl)acetic acid] reads 1500 nM; that for `O=C(O)C[C@H]1O[C@H](c2cccc(Cl)c2)[C@@H](c2ccc(OC(F)(F)F)cc2)N(CC2CC2)C1=O` [Example 65, 2-((2R,5R,6R)-6-(3-Chlorophenyl)-4-(cyclopropylmethyl)-3-oxo-5-(4-(trifluoromethoxy)phenyl)morpholin-2-yl)acetic acid], 1100 nM.

As for `CC(C)c1ccc([C@@H]2[C@@H](c3cccc(Cl)c3)O[C@H](CC(=O)O)C(=O)N2CC2CC2)cc1` [Example 66, 2-((2R,5R,6R)-6-(3-Chlorophenyl)-4-(cyclopropylmethyl)-5-(4-isopropylphenyl)-3-oxomorpholin-2-yl)acetic acid], the IC50 came to 13500 nM.

(Values after patent publication US9376425B2, “Heterocyclic compounds as MDM2 inhibitors for the treatment of cancer” (AMGEN INC., priority 2011, dated 2016).)
